The text below walks through data of paper PMC3435281 (PLoS ONE, 2012).

The test system of data set [1] is murine AHR^d. The data set is described as follows: EROD activity in AHR^d-15 cells (rat hepatoma BP8 stably transfected with AHR^d). The settings on record: 5L versus AHR^d-15 cells, 40 hours. The source says:
(§1) The 100 “hit compounds” from the primary screen were subsequently screened for their capacity to activate the low-affinity murine AHR^d receptor isoform using the activity of the endogenous Cyp1a1 gene as a readout. To this end, we established a hepatoma cell line that expresses the AHR^d receptor isoform derived from the DBA/2J mouse. An AHR^d-expressing cell line was generated by stably transfecting the AHR^d cDNA into the rat hepatoma AHR-deficient cell line, BP8 [15]. After stable selection with G418, a subclone (AHR^d-15) was analyzed for receptor expression and function. […] To confirm that the AHR^d-15 clone expressed a functional low affinity AHR^d isoform, we examined the receptor-mediated response to the prototype agonists, TCDD and β-naphthoflavone (BNF).
(§2) To test the ability of the 100 AHR inducers to activate the AHR^d-15 cells, they were treated with each of the compounds at the dose of 1 µM, for 36 hours in 96-well plates.
(§3) Figure 3 In Vitro dose response curves. A. Rat hepatoma cell lines bearing the murine AHR^d (AHR^d-15) or the rat AHR^b (5L) were incubated with increasing doses of TCDD in 96-well plates. After 40 hours, EROD activity was performed from whole cell lysate. (n = 3). […] (n = 3). C. Same assay as in A, with increasing doses of BNF. (n = 2). […] Following 48 hours, hepatic microsomal proteins were isolated and used for the assessment of EROD activity. Animals were treated in groups of 4. Error bars: S.D.
(§4) The open reading frame of the AHR^d gene (PL2047) was amplified by PCR using oligos OL5127 (5′-[…]-3′) and OL5128 (5′-[…]-3′). The product was ligated into the pTARGET™ mammalian expression vector (Promega, Madison, WI). The resulting plasmid was transfected into the AHR-deficient cell line, BP8 [15], using Effectene transfection reagent (Qiagen Inc., Valencia, CA). Stable integrants were selected with 6 mg/ml of G418 for 2 weeks, beginning at 48-hours post-transfection. Clones derived from single cells were screened for their response to nanomolar doses of dioxin or micromolar doses of BNF, as measured by ethoxyresorufin O-deethylase (EROD) activity. […] The validated cell line used in these studies was designated line AHR^d-15.
(§5) High-throughput analysis of EROD activity was assayed by adapting a protocol that was described elsewhere, [63]. Briefly, cells were seeded into 96-well plates at ∼ 60% density and treated with the test compounds for 36 hours. The cells were washed with PBS and lysed with 30 µL water and a cycle of freeze-thaw. To each well, 150 µL of 50 mM Hepes buffer containing 26.7 µM dicumarol and 13.3 µM ethoxyresorufin were added. The samples were incubated at 30°C for 20 minutes, and 50 µL of 0.5 mM β-NADPH were added to initiate the reaction. Fluorescence of the resorufin product was detected using the 544 nm excitation and 590 nm emission wavelength filter set.

The target of data set [2] is T1, murine AHR^d (Mus musculus, UniProt P30561, A375V).
T1 sequence (P30561 10-848 A375V): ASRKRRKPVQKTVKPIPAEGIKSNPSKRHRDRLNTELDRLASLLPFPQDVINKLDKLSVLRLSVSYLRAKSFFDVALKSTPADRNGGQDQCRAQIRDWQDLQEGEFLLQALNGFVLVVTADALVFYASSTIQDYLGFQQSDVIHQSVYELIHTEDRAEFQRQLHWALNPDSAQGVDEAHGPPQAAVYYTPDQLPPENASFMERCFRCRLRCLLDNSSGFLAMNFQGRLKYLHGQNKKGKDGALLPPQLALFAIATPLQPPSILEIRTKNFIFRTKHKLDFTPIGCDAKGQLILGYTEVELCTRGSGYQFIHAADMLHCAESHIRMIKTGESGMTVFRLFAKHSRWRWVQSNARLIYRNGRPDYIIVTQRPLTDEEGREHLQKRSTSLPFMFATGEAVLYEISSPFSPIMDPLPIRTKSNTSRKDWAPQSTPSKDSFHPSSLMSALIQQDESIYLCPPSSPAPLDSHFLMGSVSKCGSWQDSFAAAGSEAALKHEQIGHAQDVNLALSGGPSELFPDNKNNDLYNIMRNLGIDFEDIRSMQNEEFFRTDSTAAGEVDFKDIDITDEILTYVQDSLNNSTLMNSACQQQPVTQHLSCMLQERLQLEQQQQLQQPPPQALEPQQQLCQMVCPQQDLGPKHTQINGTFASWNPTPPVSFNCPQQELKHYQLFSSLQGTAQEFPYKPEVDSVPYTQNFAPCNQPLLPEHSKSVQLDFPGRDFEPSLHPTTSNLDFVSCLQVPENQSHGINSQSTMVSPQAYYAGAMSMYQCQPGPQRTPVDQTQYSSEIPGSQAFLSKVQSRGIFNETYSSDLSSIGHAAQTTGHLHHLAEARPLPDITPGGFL
The description is as above.
Text: as §1, §2, §3, §4, §5

Data set [3] deals with CYP1A1 (induction through AHR^b). The data set is described as follows: CYP1A1 qPCR in wild-type splenocytes. The following applies: C57BL/6J, mouse. On the procedure:
As the above in vitro experiments were performed in cell lines, we next utilized AHR^b (C57BL/6J) and AHR^d congenic mice (on a C57BL/6J background). […] Normalized data was chosen to allow comparison of CYP1A1 upregulation to its maximum in AHR^b versus AHR^d mice.
Figure 4 Splenocytes from wild-type and AHR^d mice analyzed by qPCR for CYP1A1. […] After 4 hours they were analyzed by qPCR for CYP1A1 analysis. The curves are normalized from 0 to 100% response. […] Cos-1 cells were transfected with an AHR containing the same point mutation (valine for alanine) thought to be responsible for the low affinity of the AHR^d isoform compared to AHR^b, and compared to the wild-type AHR response. These cells also harbor a luciferase gene next to the DRE. C. Cos-1 cells were exposed to TCDD. […]
Spleen was harvested from mice at the time of euthanasia and single cell suspensions were made. […] The relative quantitation PCR for IDO1 (Mm00492586-m1) and GAPDH (4352339-E0806018) were performed in the Applied Biosystems 7900HT Fast Real-Time PCR System (Applied Biosystems), and TaqMan Universal PCR Master Mix (Applied Biosystems) was used as a reaction reagent. The relative quantitation PCR for Foxp3, CYP1A1, CYP1B1, and GAPDH were processed by the Bio-Rad iCycler (Bio-Rad) and iQ SYBR Green Supermix ([…]) was used as the reaction reagent.

In the case of `Cc1cc(C)c(C=C2C(=O)Nc3ccccc32)[nH]1` [SU5416, 3-(3,5-dimethyl-1H-pyrrol-2-ylmethylene)-1,3-dihydro-indole-2-one], the “cytochrome P450 induction (EROD), comparison of the two cell lines” value in the data set with murine AHR^d [1] is “equal potency”.

Turning to `Clc1cc2c(cc1Cl)Oc1cc(Cl)c(Cl)cc1O2` [TCDD, 2,3,7,8-tetrachlorodibenzo-p-dioxin], the concentration giving a half-maximal response (EC50) (in general, the midpoint of the concentration-response curve) at murine AHR^d [2] is ~0.03 µM. Further, the “induction of AHR^d-mediated EROD activity” value at murine AHR^d [2] (AHR^d-15 cells, positive control 2 nM, 36 hours) was “greater than 5 fold”. Also, in data set [3], the response was half-maximal at 0.000461 µM (EC50 at 4 h).
